Measured values reported in US10745382B2 (BRISTOL-MYERS SQUIBB COMPANY, priority 2015, dated 2020).

Target: T1, PD-1/PD-L1 (Homo sapiens, UniProt Q9NZQ7)
T1 construct: made in house; host or cells: HEK293T
Experiment: PD-1/PD-L1 Homogenous Time-Resolved Fluorescence (HTRF) binding assay
Details: PD-L1-His 10 nM, PD-1-Ig 20 nM; value given as range class; read-out: Range or IC50
In short: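 dPBS + 0.1% BSA + 0.05% Tween-20 buffer; Eu-cryptate anti-Ig 1 nM final, APC anti-His 20 nM final; HTRF read. Counter-assays: PD-1-Ig/PD-L2-His 20 & 5 nM, CD80-His/PD-L1-Ig 100 & 10 nM.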

T1 sequence (Q9NZQ7 with tags, fused parts or gaps): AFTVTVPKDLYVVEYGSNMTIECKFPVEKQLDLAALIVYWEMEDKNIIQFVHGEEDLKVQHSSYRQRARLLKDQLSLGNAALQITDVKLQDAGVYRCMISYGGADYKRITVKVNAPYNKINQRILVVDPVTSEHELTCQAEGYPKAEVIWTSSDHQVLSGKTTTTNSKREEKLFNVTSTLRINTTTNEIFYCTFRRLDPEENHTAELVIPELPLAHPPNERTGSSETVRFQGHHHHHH

SMILES	IC50 [nM]
Cc1cc(OCc2cccc(-c3cccc(OCCCN4CC[C@@H](O)C4)c3C)c2C)cc(OCc2cncc(C#N)c2)c1CNC(CO)CO [Example 4087, (R)-5-((2-(((1,3-dihydroxypropan-2-yl)amino)methyl)-5-((3′-(3-(3-hydroxypyrrolidin-1-yl)propoxy)-2,2′-dimethyl-[1,1′-biphenyl]-3-yl)methoxy)-3-methylphenoxy)methyl)nicotinonitrile]	0.21 to 10
Cc1cc(OCc2cccc(-c3cccc(OCCCN4CC[C@@H](O)C4)c3C)c2C)cc(OCc2cncc(C#N)c2)c1CNC(C)(CO)CO [Example 4088, (R)-5-((2-(((1,3-dihydroxy-2-methylpropan-2-yl)amino)methyl)-5-((3′-(3-(3-hydroxypyrrolidin-1-yl)propoxy)-2,2′-dimethyl-[1,1′-biphenyl]-3-yl)methoxy)-3-methylphenoxy)methyl)nicotinonitrile]	0.21 to 10
Cc1cc(OCc2cccc(-c3cccc(OCCCN4CC[C@@H](O)C4)c3C)c2C)cc(OCc2cncc(C#N)c2)c1CNC(CO)(CO)CO [Example 4089, (R)-5-((2-(((1,3-dihydroxy-2-(hydroxymethyl)propan-2-yl)amino)methyl)-5-((3′-(3-(3-hydroxypyrrolidin-1-yl)propoxy)-2,2′-dimethyl-[1,1′-biphenyl]-3-yl)methoxy)-3-methylphenoxy)methyl)nicotinonitrile]	0.21 to 10
Cc1cc(OCc2cccc(-c3cccc(OCCCN4CC[C@@H](O)C4)c3C)c2C)cc(OCc2cncc(C#N)c2)c1CN(CCO)CCO [Example 4090, (R)-5-((2-((bis(2-hydroxyethyl)amino)methyl)-5-((3′-(3-(3-hydroxypyrrolidin-1-yl)propoxy)-2,2′-dimethyl-[1,1′-biphenyl]-3-yl)methoxy)-3-methylphenoxy)methyl)nicotinonitrile]	0.21 to 10
Cc1cc(OCc2cccc(-c3cccc(OCCCN4CC[C@@H](O)C4)c3C)c2C)cc(OCc2cncc(C#N)c2)c1CN[C@@](C)(CO)C(=O)O [Example 4091, (S)-2-((2-((5-cyanopyridin-3-yl)methoxy)-4-((3′-(3-((R)-3-hydroxypyrrolidin-1-yl)propoxy)-2,2′-dimethyl-[1,1′-biphenyl]-3-yl)methoxy)-6-methylbenzyl)amino)-3-hydroxy-2-methylpropanoic Acid]	0.21 to 10
Cc1c(COc2cc(OCc3cncc(C#N)c3)c(CN(C)[C@@](C)(CO)C(=O)O)c(C)c2Cl)cccc1-c1cccc(OCCCN2CC[C@@H](O)C2)c1C [Example 4100, (S)-2-((3-chloro-6-((5-cyanopyridin-3-yl)methoxy)-4-((3′-(3-((R)-3-hydroxypyrrolidin-1-yl)propoxy)-2,2′-dimethyl-[1,1′-biphenyl]-3-yl)methoxy)-2-methylbenzyl)(methyl)amino)-3-hydroxy-2-methylpropanoic Acid]	0.21 to 10
Cc1c(COc2cc(OCc3cncc(C#N)c3)c(CN3CCCC[C@H]3C(=O)O)c(C)c2Cl)cccc1-c1cccc(OCCCN2CC[C@@H](O)C2)c1C [Example 4101, (S)-1-(3-chloro-6-((5-cyanopyridin-3-yl)methoxy)-4-((3′-(3-((R)-3-hydroxypyrrolidin-1-yl)propoxy)-2,2′-dimethyl-[1,1′-biphenyl]-3-yl)methoxy)-2-methylbenzyl)piperidine-2-carboxylic Acid]	0.21 to 10
Cc1c(COc2cc(OCc3cncc(C#N)c3)c(CNC(CO)CO)c(C)c2Cl)cccc1-c1cccc(OCCCN2CC[C@@H](O)C2)c1C [Example 4102, (R)-5-((4-chloro-2-(((1,3-dihydroxypropan-2-yl)amino)methyl)-5-((3′-(3-(3-hydroxypyrrolidin-1-yl)propoxy)-2,2′-dimethyl-[1,1′-biphenyl]-3-yl)methoxy)-3-methylphenoxy)methyl)nicotinonitrile]	0.21 to 10
Cc1c(COc2cc(OCc3cncc(C#N)c3)c(CNC(C)(CO)CO)c(C)c2Cl)cccc1-c1cccc(OCCCN2CC[C@@H](O)C2)c1C [Example 4103, (R)-5-((4-chloro-2-(((1,3-dihydroxy-2-methylpropan-2-yl)amino)methyl)-5-((3′-(3-(3-hydroxypyrrolidin-1-yl)propoxy)-2,2′-dimethyl-[1,1′-biphenyl]-3-yl)methoxy)-3-methylphenoxy)methyl)nicotinonitrile]	0.21 to 10
Cc1c(COc2cc(OCc3cncc(C#N)c3)c(CNC(CO)(CO)CO)c(C)c2Cl)cccc1-c1cccc(OCCCN2CC[C@@H](O)C2)c1C [Example 4104, (R)-5-((4-chloro-2-(((1,3-dihydroxy-2-(hydroxymethyl)propan-2-yl)amino)methyl)-5-((3′-(3-(3-hydroxypyrrolidin-1-yl)propoxy)-2,2′-dimethyl-[1,1′-biphenyl]-3-yl)methoxy)-3-methylphenoxy)methyl)nicotinonitrile]	0.21 to 10
Cc1c(COc2cc(OCc3cncc(C#N)c3)c(CN(CCO)CCO)c(C)c2Cl)cccc1-c1cccc(OCCCN2CC[C@@H](O)C2)c1C [Example 4105, (R)-5-((2-((bis(2-hydroxyethyl)amino)methyl)-4-chloro-5-((3′-(3-(3-hydroxypyrrolidin-1-yl)propoxy)-2,2′-dimethyl-[1,1′-biphenyl]-3-yl)methoxy)-3-methylphenoxy)methyl)nicotinonitrile]	0.21 to 10
Cc1c(COc2cc(OCc3cncc(C#N)c3)c(CN[C@@](C)(CO)C(=O)O)c(C)c2Cl)cccc1-c1cccc(OCCCN2CC[C@@H](O)C2)c1C [Example 4106, (S)-2-((3-chloro-6-((5-cyanopyridin-3-yl)methoxy)-4-((3′-(3-((R)-3-hydroxypyrrolidin-1-yl)propoxy)-2,2′-dimethyl-[1,1′-biphenyl]-3-yl)methoxy)-2-methylbenzyl)amino)-3-hydroxy-2-methylpropanoic Acid]	0.21 to 10
Cc1c(COc2cc(OCc3cncc(C#N)c3)c(CN(C)C(C)(CO)CO)c(C)c2Cl)cccc1-c1cccc(OCCCN2CC[C@@H](O)C2)c1C [Example 4107, (R)-5-((4-chloro-2-(((1,3-dihydroxy-2-methylpropan-2-yl)(methyl)amino)methyl)-5-((3′-(3-(3-hydroxypyrrolidin-1-yl)propoxy)-2,2′-dimethyl-[1,1′-biphenyl]-3-yl)methoxy)-3-methylphenoxy)methyl)nicotinonitrile]	0.21 to 10
Cc1c(COc2cc(OCc3cncc(C#N)c3)c(CN(C)[C@@](C)(CO)C(=O)O)cc2Cl)cccc1-c1cccc(OCCCN2CC[C@@H](O)C2)c1C [Example 4108, (S)-2-((5-chloro-2-((5-cyanopyridin-3-yl)methoxy)-4-((3′-(3-((R)-3-hydroxypyrrolidin-1-yl)propoxy)-2,2′-dimethyl-[1,1′-biphenyl]-3-yl)methoxy)benzyl)(methyl)amino)-3-hydroxy-2-methylpropanoic Acid]	0.21 to 10
CCN(Cc1cc(Cl)c(OCc2cccc(-c3cccc(OCCCN4CC[C@@H](O)C4)c3C)c2C)cc1OCc1cncc(C#N)c1)[C@@](C)(CO)C(=O)O [Example 4109, (S)-2-((5-chloro-2-((5-cyanopyridin-3-yl)methoxy)-4-((3′-(3-((R)-3-hydroxypyrrolidin-1-yl)propoxy)-2,2′-dimethyl-[1,1′-biphenyl]-3-yl)methoxy)benzyl)(ethyl)amino)-3-hydroxy-2-methylpropanoic Acid]	0.21 to 10
Cc1c(COc2cc(OCc3cncc(C#N)c3)c(CNC3(C(=O)O)CC3)cc2Cl)cccc1-c1cccc(OCCCN2CC[C@@H](O)C2)c1C [Example 4110, (R)-1-((5-chloro-2-((5-cyanopyridin-3-yl)methoxy)-4-((3′-(3-(3-hydroxypyrrolidin-1-yl)propoxy)-2,2′-dimethyl-[1,1′-biphenyl]-3-yl)methoxy)benzyl)amino)cyclopropane-1-carboxylic Acid]	0.21 to 10
Cc1c(COc2cc(OCc3cncc(C#N)c3)c(CN(CCO)[C@@](C)(CO)C(=O)O)cc2Cl)cccc1-c1cccc(OCCCN2CC[C@@H](O)C2)c1C [Example 4111, (S)-2-((5-chloro-2-((5-cyanopyridin-3-yl)methoxy)-4-((3′-(3-((R)-3-hydroxypyrrolidin-1-yl)propoxy)-2,2′-dimethyl-[1,1′-biphenyl]-3-yl)methoxy)benzyl)(2-hydroxyethyl)amino)-3-hydroxy-2-methylpropanoic Acid]	0.21 to 10
Cc1c(COc2cc(OCc3cncc(C#N)c3)c(CN3CCCC[C@H]3C(=O)O)cc2Cl)cccc1-c1cccc(OCCCN2CCC(F)(F)C2)c1C [Example 4112, (S)-1-(5-chloro-2-((5-cyanopyridin-3-yl)methoxy)-4-((3′-(3-(3,3-difluoropyrrolidin-1-yl)propoxy)-2,2′-dimethyl-[1,1′-biphenyl]-3-yl)methoxy)benzyl)piperidine-2-carboxylic Acid]	0.21 to 10
Cc1c(COc2cc(OCc3cncc(C#N)c3)c(CN(CCO)CCCO)cc2Cl)cccc1-c1cccc(OCCCN2CCC(F)(F)C2)c1C [Example 4113]	0.21 to 10
Cc1c(COc2cc(OCc3cncc(C#N)c3)c(CN(C)C(C)(CO)CO)cc2Cl)cccc1-c1cccc(OCCCN2CCC(F)(F)C2)c1C [Example 4114, 5-((4-chloro-5-((3′-(3-(3,3-difluoropyrrolidin-1-yl)propoxy)-2,2′-dimethyl-[1,1′-biphenyl]-3-yl)methoxy)-2-(((1,3-dihydroxy-2-methylpropan-2-yl)(methyl)amino)methyl)phenoxy)methyl)nicotinonitrile]	0.21 to 10
Cc1c(COc2cc(OCc3cncc(C#N)c3)c(CN(C)[C@@](C)(CO)C(=O)O)cc2Cl)cccc1-c1cccc(OCCCN2CCC(F)(F)C2)c1C [Example 4115, (S)-2-((5-chloro-2-((5-cyanopyridin-3-yl)methoxy)-4-((3′-(3-(3,3-difluoropyrrolidin-1-yl)propoxy)-2,2′-dimethyl-[1,1′-biphenyl]-3-yl)methoxy)benzyl)(methyl)amino)-3-hydroxy-2-methylpropanoic Acid]	0.21 to 10
